Experimental data from ChEMBL document CHEMBL5729337, “Substituted eneoxindoles and uses thereof” (2022).

Target: Mitogen-activated protein kinase kinase kinase kinase 1 (Homo sapiens, UniProt Q92918)
Assay: Biochemical Assay: The enzymatic activity of human HPK1 (MAP4K1) was monitored in a biochemical assay in the presence or absence of compounds and using a synthetic peptide substrate. An increase in phosphorylation of the peptide by HPK1 was indicative of its kinase activity.Recombinant HPK1 kinase domain produced via baculovirus infection of insect cells was obtained from Proteros (Proteros Biostructures #PR-0322) and was pre-activated in the presence of 2 mM ATP (Sigma-Aldrich, cat #GE27-2056-01) and 2 mM magnesium chloride for 16 hours at 4° C. The protein reaction mixture was then loaded to a desalting column (Thermo Fisher Scientific, Cat #89889) to remove excess ATP. HPK1 was eluted with buffer containing 20 mM Tris (2-Amino-2-(hydroxymethyl)propane-1,3-diol) pH 8.0, 150 mM NaCl, 2 mM dithiothreitol and 5% glycerol, and was frozen at −80° C. for later use. HPK1 dual phosphorylation was confirmed by mass spectrometry.

Chain of Mitogen-activated protein kinase kinase kinase kinase 1 (Q92918 whole entry, the tested form may be a part): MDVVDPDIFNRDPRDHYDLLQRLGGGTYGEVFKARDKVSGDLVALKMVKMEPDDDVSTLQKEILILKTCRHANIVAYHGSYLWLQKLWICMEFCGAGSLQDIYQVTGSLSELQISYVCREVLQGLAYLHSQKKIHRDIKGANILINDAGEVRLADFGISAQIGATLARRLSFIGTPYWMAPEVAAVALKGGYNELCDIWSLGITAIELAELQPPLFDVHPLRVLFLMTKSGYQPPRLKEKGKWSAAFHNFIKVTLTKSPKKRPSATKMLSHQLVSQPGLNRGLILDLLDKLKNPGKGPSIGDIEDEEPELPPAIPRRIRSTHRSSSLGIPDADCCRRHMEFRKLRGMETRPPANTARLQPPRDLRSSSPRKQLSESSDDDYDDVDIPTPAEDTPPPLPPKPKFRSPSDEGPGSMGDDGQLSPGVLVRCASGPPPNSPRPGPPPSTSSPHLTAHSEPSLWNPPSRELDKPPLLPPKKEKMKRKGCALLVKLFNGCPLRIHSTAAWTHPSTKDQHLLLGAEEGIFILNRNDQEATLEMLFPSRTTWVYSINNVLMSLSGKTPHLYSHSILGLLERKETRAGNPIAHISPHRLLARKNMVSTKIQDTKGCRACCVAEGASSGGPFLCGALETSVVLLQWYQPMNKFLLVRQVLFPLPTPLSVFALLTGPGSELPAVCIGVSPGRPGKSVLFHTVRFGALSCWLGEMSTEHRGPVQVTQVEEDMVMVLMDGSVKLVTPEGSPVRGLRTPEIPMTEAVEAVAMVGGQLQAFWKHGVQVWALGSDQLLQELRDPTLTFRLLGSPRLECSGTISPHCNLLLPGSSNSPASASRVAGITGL

IC50: 0.1 nM
Structure (SMILES): Cc1c(-c2cc(F)c3c(c2)/C(=C/c2cc4cnccc4[nH]2)C(=O)N3)cnc2c1NCCO2
